One data set deals with MOLM-14 cells. In words: AlamarBlue cell viability assay, MOLM-14. As to conditions: Supplementary Figure 7, replicates.
Another data set deals with T1, full-length BTK protein (Homo sapiens, UniProt Q06187).
T1 construct: Kd was measured using the full-length BTK protein by Eurofins DiscoverX; T7 phage fusion or DNA tag for qPCR (generic vendor protocol); purchased Eurofins DiscoverX
In words: BTK binding assay (Kd, Eurofins DiscoverX). The following applies: for Kd: full-length BTK, standard assay buffer in the presence of DTT (6 mM) (DiMe compounds: BTK_+DTT per Supplementary Data 1), duplicates. The method, then: The dissociation equilibrium constant Kd was measured using the full-length BTK protein by Eurofins DiscoverX according to the following protocol: kinase-tagged T7 phage strains were prepared in an E. coli host derived from the BL21 strain. E. coli were grown to log-phase and infected with T7 phage and incubated with shaking at 32 °C until lysis. The lysates were centrifuged and filtered to remove cell debris. The remaining kinases were produced in HEK-293 cells and subsequently tagged with DNA for qPCR detection. […] The liganded beads were blocked with excess biotin and washed with blocking buffer (SeaBlock (Pierce), 1% BSA, 0.05% Tween 20, 1 mM DTT) to remove unbound ligand and to reduce non-specific binding. […] Test compounds were prepared as 111X stocks in 100% DMSO. […] The compounds were then diluted directly into the assays such that the final concentration of DMSO was 0.9%. All reactions performed in polypropylene 384-well plate. Each was a final volume of 0.02 mL. […] The kinase concentration in the eluates was measured by qPCR. For kinase-binding constant determination, an 11-point 3-fold serial dilution of each test compound was prepared in 100% DMSO at 100x final test concentration and subsequently diluted to 1x in the assay (final DMSO concentration = 1%). […] Binding constants (Kd values) were calculated with a standard dose-response curve using the Hill equation: Response=Background+Signal−Background/1+KdHillSlope/Dose^HillSlope
The Hill Slope was set to −1. Curves were fitted using a non-linear least square fit with the Levenberg-Marquardt algorithm.

The target of a further data set is T2, BTK-NanoLuc fusion (Homo sapiens, UniProt Q06187).
T2 construct: host or cells: HEK 293T/17
T2 sequence (Q06187 whole entry, the tested form may be a part): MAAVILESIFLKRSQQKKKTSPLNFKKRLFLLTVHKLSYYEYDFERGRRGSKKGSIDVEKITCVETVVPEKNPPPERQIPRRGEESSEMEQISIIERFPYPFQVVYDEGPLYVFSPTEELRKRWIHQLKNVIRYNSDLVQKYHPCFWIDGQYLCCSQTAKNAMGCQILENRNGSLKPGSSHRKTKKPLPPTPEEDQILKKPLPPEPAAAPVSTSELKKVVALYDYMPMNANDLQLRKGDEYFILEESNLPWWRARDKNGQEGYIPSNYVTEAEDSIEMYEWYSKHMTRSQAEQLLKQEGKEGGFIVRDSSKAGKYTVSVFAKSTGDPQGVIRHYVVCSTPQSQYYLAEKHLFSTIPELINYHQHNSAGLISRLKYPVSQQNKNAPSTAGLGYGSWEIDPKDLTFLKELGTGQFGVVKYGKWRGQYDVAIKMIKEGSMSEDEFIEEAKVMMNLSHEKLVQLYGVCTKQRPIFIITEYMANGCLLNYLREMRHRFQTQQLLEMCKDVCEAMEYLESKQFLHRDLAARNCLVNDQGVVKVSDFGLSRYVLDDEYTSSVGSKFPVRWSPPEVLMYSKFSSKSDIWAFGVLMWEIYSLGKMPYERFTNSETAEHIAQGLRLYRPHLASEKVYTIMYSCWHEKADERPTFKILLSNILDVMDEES
As to the kind of experiment: NanoBRET BTK in-cell target engagement assay. In kind it is cell-based. As to conditions: for IC50: HEK-293 cells, BTK tracer 1.0 µM, Table 1 / Fig. 3c, triplicates, read-out: BTK TE IC50,TE; for K′P,D (relative intracellular accumulation coefficient): Kd (BTK)/IC50,TE (BTK); for intracellular accumulation of RC-1 relative to the compound: from K′P,D values, BTK (Table 1). As to the method: The target engagement assay for BTK or CRBN was from Promega (BTK kit, Cat. No. N2500; CRBN kit, Cat. No. CS1810C136) and was performed according to the manufacture’s instruction with some modifications. Briefly, HEK 293/T17 cells (ATCC) were transiently transfected with BTK-NanoLuc® fusion vector or NanoLuc®-CRBN fusion vector (Promega) in 0.125 M CaCl2 and 1x HBS. Forty-eight hours after transfection, the cells were resuspended in Opti-MEM medium (Life Technologies, Cat. No. 11058021) at the density of 2 × 10^5 cells per mL and were plated into 96-well plates (Corning, Cat. No. CLS3600). Cells were incubated with 1.0 µM (BTK) or 0.5 µM (CRBN) NanoBRET™ Tracer and serially diluted unlabeled BTK PROTAC compounds (from 10 to 0.0032 µM, 5-fold dilution) for 2 h at 37 °С with 5% CO2 in an incubator. After 2 h incubation, the 3X Nano-Glo® Substrate with NanoLuc® extracellular inhibitor were added to cells and developed for 3 min at room temperature. BRET signals were collected using a BioTek SYNERGY H1 microplate reader equipped with a 450/80-nm BP filter for donor emission and a 610-nm LP filter for acceptor emission. BRET Ratio was calculated with the equation: [(Acceptor sample/Donor sample)–(Acceptor no tracer control/Donor no tracer control)] × 1000. The IC50 of the compound against its BTK or CRBN tracer was calculated using GraphPad Prism software.
On the technique in general: Bioluminescence resonance energy transfer reports proximity on the nanometre scale.

Where “and” joins values, the source holds several entries; their conditions need not be identical. Equal entries are not always repeated.

T1 sequence (Q06187 whole entry, the tested form may be a part): as above
Procedure for MOLM-14 cells: The IC50 was calculated using GraphPad Prism software with a four-parameter dose-response curve fit.

Take `CN(CCCC(=O)N1CCC[C@@H](n2nc(-c3ccc(Oc4ccccc4)cc3)c3c(N)ncnc32)C1)CCOCCNC(=O)CNc1ccc2c(c1)C(=O)N(C1CCC(=O)NC1=O)C2=O` (stereo partly shown) [RNC-10]: the “Cell viability, MOML-14” value in the data set with MOLM-14 cells (drug concentration 1.00E-05 M) was 20.4373 and 14.3566 and 19.5812 and 10.2077 and 15.081; in the data set with MOLM-14 cells (drug concentration 1.60E-08 M), 105.787 and 111.889 and 72.4196 and 87.9176 and 69.5658; in the data set on MOLM-14 cells (drug concentration 2.00E-06 M), 69.7853 and 58.8313 and 63.507 and 54.1116 and 44.6942; in the data set with MOLM-14 cells (drug concentration 3.20E-09 M) it was 101.374 and 90.2665 and 79.5759 and 58.2825 and 70.4; in the data set on MOLM-14 cells (drug concentration 4.00E-07 M), 94.3057 and 78.2807 and 83.198 and 62.2338 and 64.8242; in the data set on MOLM-14 cells (drug concentration 6.40E-10 M), 98.3448 and 99.8376 and 85.8542 and 80.1905 and 70.3561. Moreover, the “Cell viability, MOML-14” value in the data set with MOLM-14 cells (drug concentration 8.00E-08 M) was 101.967 and 84.7346 and 87.9396 and 100.716 and 97.1814.
For the compound `CN(C/C=C/C(=O)N1CCC[C@@H](n2nc(-c3ccc(Oc4ccccc4)cc3)c3c(N)ncnc32)C1)CCOCCNC(=O)CNc1ccc2c(c1)C(=O)N(C1CCC(=O)NC1=O)C2=O` (stereo partly shown) [IRC-10], the “Cell viability, MOML-14” value in the data set with MOLM-14 cells (drug concentration 1.00E-05 M) was 75.82 and 58.3378 and 68.0769 and 46.8499 and 54.5004; in the data set with MOLM-14 cells (drug concentration 1.60E-08 M), 97.1244 and 98.6788 and 78.5933 and 90.154 and 64.4582; with MOLM-14 cells (drug concentration 2.00E-06 M) it was 114.76 and 85.758 and 93.5542 and 68.0284 and 77.3303; in the data set on MOLM-14 cells (drug concentration 3.20E-09 M), 99.6503 and 95.7157 and 83.0135 and 73.4201 and 68.8541; in the data set on MOLM-14 cells (drug concentration 4.00E-07 M), 101.229 and 92.1212 and 88.8668 and 84.1065 and 86.0252; with MOLM-14 cells (drug concentration 6.40E-10 M), 105.091 and 113.591 and 102.055 and 78.059 and 83.1593. In the data set with MOLM-14 cells (drug concentration 8.00E-08 M), the “Cell viability, MOML-14” value was 111.6 and 85.6366 and 80.0019 and 73.9301 and 92.4127.
`CN(CCCNC(=O)CNc1cccc2c1C(=O)N(C1CCC(=O)NC1=O)C2=O)C(C)(C)CC(C#N)C(=O)N1CCC[C@@H](n2nc(-c3ccc(Oc4ccccc4)cc3)c3c(N)ncnc32)C1` (stereo partly shown) [RNC-1-CN-DiMe]: the Signal at full-length BTK protein (BTK_+DTT, compound concentration 0.0169 nM, listed as RNC-CN-DiMe) was 2.50E-05 and 2.61E-05; on full-length BTK protein (BTK_+DTT, compound concentration 0.152 nM) it was 3.53E-05; at full-length BTK protein (BTK_+DTT, compound concentration 0.457 nM, listed as RNC-CN-DiMe), 3.21E-05 and 2.23E-05; at full-length BTK protein (BTK_+DTT, compound concentration 1.37 nM, listed as RNC-CN-DiMe), 2.55E-05 and 2.14E-05; on full-length BTK protein (BTK_+DTT, compound concentration 4.12 nM, listed as RNC-CN-DiMe) it was 2.68E-05 and 2.21E-05; on full-length BTK protein (BTK_+DTT, compound concentration 12.3 nM, listed as RNC-CN-DiMe), 2.12E-05 and 1.99E-05. For the same compound, the Signal on full-length BTK protein (BTK_+DTT, compound concentration 37 nM, listed as RNC-CN-DiMe) is 1.30E-05 and 9.19E-06; on full-length BTK protein (BTK_+DTT, compound concentration 111 nM, listed as RNC-CN-DiMe) it was 5.21E-06 and 4.55E-06; at full-length BTK protein (BTK_+DTT, compound concentration 333 nM, listed as RNC-CN-DiMe), 1.18E-06 and 1.22E-06; on full-length BTK protein (BTK_+DTT, compound concentration 1000 nM, listed as RNC-CN-DiMe), 2.41E-07 and 2.28E-07; at full-length BTK protein (BTK_-DTT, compound concentration 0.152 nM), 2.77E-05. Moreover, at full-length BTK protein, the Kd was found to be 29 nM. Also, the IC50 on BTK-NanoLuc fusion worked out at 930 nM. Also, the “K′P,D (relative intracellular accumulation coefficient)” value at BTK-NanoLuc fusion is recorded as 3.1 × 10^−2. Also, the “intracellular accumulation of RC-1 relative to the compound” value on BTK-NanoLuc fusion came to 5 folds.
Consider `CN(C/C=C/C(=O)N1CCC[C@@H](n2nc(-c3ccc(Oc4ccccc4)cc3)c3c(N)ncnc32)C1)CCOCCNC(=O)CNc1cccc2c1C(=O)N(C1CCC(=O)NC1=O)C2=O` (stereo partly shown) [IRC-3], for which the “Cell viability, MOML-14” value in the data set on MOLM-14 cells (drug concentration 1.00E-05 M) was 33.9254 and 29.7755 and 25.5011 and 24.5466 and 23.5092; with MOLM-14 cells (drug concentration 1.60E-08 M), 86.2431 and 93.4971 and 75.2168 and 81.4209 and 78.2878; with MOLM-14 cells (drug concentration 2.00E-06 M), 87.4798 and 73.7851 and 74.2831 and 71.2537 and 90.0734; with MOLM-14 cells (drug concentration 3.20E-09 M), 87.9238 and 88.7455 and 83.4544 and 84.1599 and 82.3547; in the data set on MOLM-14 cells (drug concentration 4.00E-07 M) it was 86.2555 and 86.2763 and 83.0809 and 75.6111 and 85.2388; in the data set with MOLM-14 cells (drug concentration 6.40E-10 M) it was 91.0487 and 98.1035 and 82.7281 and 78.682 and 82.9771. Moreover, the “Cell viability, MOML-14” value in the data set with MOLM-14 cells (drug concentration 8.00E-08 M) was 83.1182 and 78.35 (2×) and 67.9338 and 81.6492.
Regarding `CN(CCCC(=O)N1CCC[C@@H](n2nc(-c3ccc(Oc4ccccc4)cc3)c3c(N)ncnc32)C1)CCOCCNC(=O)CNc1cccc2c1C(=O)N(C1CCC(=O)NC1=O)C2=O` (stereo partly shown) [RNC-3], the “Cell viability, MOML-14” value with MOLM-14 cells (drug concentration 1.00E-05 M) was 41.7673 and 39.1993 and 57.4163 and 48.1542 and 48.9004; in the data set on MOLM-14 cells (drug concentration 1.60E-08 M), 96.7473 and 87.6169 and 107.151 and 102.3 and 127.409; in the data set on MOLM-14 cells (drug concentration 2.00E-06 M), 75.1942 and 80.0887 and 89.5483 and 81.8665 and 89.4166; with MOLM-14 cells (drug concentration 3.20E-09 M) it was 75.7649 and 76.4014 and 100.083 and 102.234 and 81.9543; in the data set on MOLM-14 cells (drug concentration 4.00E-07 M), 62.3107 and 94.9036 and 99.6225 and 103.727 and 94.5305; in the data set on MOLM-14 cells (drug concentration 6.40E-10 M), 107.063 and 96.7253 and 127.343 and 114.679 and 82.7444. The “Cell viability, MOML-14” value in the data set on MOLM-14 cells (drug concentration 8.00E-08 M) is 77.6963 and 91.9187 and 116.522 and 86.0147 and 77.6085.
For `CN(CCCNC(=O)CNc1cccc2c1C(=O)N(C1CCC(=O)NC1=O)C2=O)C(C)(C)/C=C/C(=O)N1CCC[C@@H](n2nc(-c3ccc(Oc4ccccc4)cc3)c3c(N)ncnc32)C1` (stereo partly shown) [IRC-1-DiMe], the Signal was 3.35E-05 and 3.58E-05 on full-length BTK protein (BTK_+DTT, compound concentration 0.0169 nM, listed as IRC-DiMe); 3.30E-05 and 3.12E-05 on full-length BTK protein (BTK_+DTT, compound concentration 0.152 nM, listed as IRC-DiMe); 3.59E-05 and 3.58E-05 at full-length BTK protein (BTK_+DTT, compound concentration 0.457 nM, listed as IRC-DiMe); 2.65E-05 and 2.79E-05 on full-length BTK protein (BTK_+DTT, compound concentration 1.37 nM, listed as IRC-DiMe); 2.70E-05 and 2.48E-05 on full-length BTK protein (BTK_+DTT, compound concentration 4.12 nM, listed as IRC-DiMe); 1.55E-05 on full-length BTK protein (BTK_+DTT, compound concentration 12.3 nM). The Signal at full-length BTK protein (BTK_+DTT, compound concentration 37 nM, listed as IRC-DiMe) was 6.57E-06 and 5.81E-06; on full-length BTK protein (BTK_+DTT, compound concentration 111 nM, listed as IRC-DiMe) it was 1.60E-06 and 1.57E-06; on full-length BTK protein (BTK_+DTT, compound concentration 333 nM, listed as IRC-DiMe), 2.79E-07 and 2.98E-07; at full-length BTK protein (BTK_+DTT, compound concentration 1000 nM, listed as IRC-DiMe), 9.10E-08 and 8.06E-08; on full-length BTK protein (BTK_-DTT, compound concentration 12.3 nM), 1.59E-05. In addition, the dissociation constant Kd on full-length BTK protein worked out at 11 nM. Also, the IC50 at BTK-NanoLuc fusion is 380 nM. On BTK-NanoLuc fusion, the “K′P,D (relative intracellular accumulation coefficient)” value was 2.9 × 10^−2. Also, the “intracellular accumulation of RC-1 relative to the compound” value at BTK-NanoLuc fusion is listed as 5 folds.

By Kd is commonly meant a measure of binding affinity in units of concentration. Usually IC50 stands for the concentration needed to halve the response being measured.

Source of the values: paper PMC7450057, “Enhancing intracellular accumulation and target engagement of PROTACs with reversible covalent chemistry” (Nature Communications, 2020).
